Earlier results on one molecule are cited in US11896569B2, “Compositions comprising amino acids for use in the treatment of mucositides in neoplasia patients undergoing radiation therapy and/or chemotherapy” (priority 2015, dated 2024).

Data set [1] concerns mucositis. The settings on record: 16 grams per day.
The test system of data set [2] is patients suffering from head and neck cancer.

Take `NC(=O)CC[C@H](N)C(=O)O` [glutamine]: the treatment/prevention of mucositis entry in data set [1] is on record as “significant results in the treatment/prevention of mucositis were not observed”. Moreover, the “efficacy for the treatment of mucositis” value in data set [2] (between 10 and 26 grams/day) is “ineffective”. In addition, the “severity of mucositis induced by antitumor treatments” value in data set [2] (daily dose of 30 g) was “significantly decreases the severity of mucositis”.
